These are literature values, as cited in US20050042712A1, “Methods, compositions and instruments to predict antimicrobial or preservative activity” (ADVANCED MEDICAL OPTICS, INC., priority 2003, published 2005).

Where two headings read alike, the source gives them in different places.

In the case of `O=C1OC2(c3ccccc31)c1cc(Br)c(O)c(Br)c1Oc1c2cc(Br)c(O)c1Br.[Na].[Na]` [Eosin Y, 2′,4′,5′,7′-Tetrabromo-3′,6′-dihydroxyspiro(isobenzofuran-1(3H),9′-(9H)xanthen)-3-one disodium salt], the pKa runs as follows: (carboxyphenyl group) 2.7; (phenolate anion) 3.6. The solubility in water result (water) is “freely soluble in water”.
